Experiments:
Assay in all cases: relative viability (nuclei count vs DMSO), 5 days (fraction); higher = more cells survive
BEN = tested on: BEN
Procedure, shortened: (§1)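 Lung cancer cell lines, seeded in 1536-well plates, were treated the following day by pin tool with a single drug or with five library-drug doses (not always all listed) in √10 steps on top of a fixed anchor-drug dose. Cells were fixed and nuclei stained in one step after 5 days, and nuclei were counted. Relative viability is the nuclei count for treated wells divided by that for vehicle wells, reported as medians of duplicate plates.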

EKVX = tested on: EKVX
Procedure, shortened: as §1

HARA = tested on: HARA
Procedure, shortened: as §1

HCC-366 = tested on: HCC-366
Procedure, shortened: as §1

HCC-827 = tested on: HCC-827
Procedure, shortened: as §1

LOU-NH91 = tested on: LOU-NH91
Procedure, shortened: as §1

NCI-H1355 = tested on: NCI-H1355
Procedure, shortened: as §1

NCI-H1395 = tested on: NCI-H1395
Procedure, shortened: as §1

NCI-H1437 = tested on: NCI-H1437
Procedure, shortened: as §1

NCI-H1734 = tested on: NCI-H1734
Procedure, shortened: as §1

NCI-H1792 = tested on: NCI-H1792
Procedure, shortened: as §1

NCI-H1993 = tested on: NCI-H1993
Procedure, shortened: as §1

NCI-H2009 = tested on: NCI-H2009
Procedure, shortened: as §1

NCI-H2087 = tested on: NCI-H2087
Procedure, shortened: as §1

NCI-H2170 = tested on: NCI-H2170
Procedure, shortened: as §1

NCI-H2405 = tested on: NCI-H2405
Procedure, shortened: as §1

NCI-H647 = tested on: NCI-H647
Procedure, shortened: as §1

NCI-H661 = tested on: NCI-H661
Procedure, shortened: as §1

SK-LU-1 = tested on: SK-LU-1
Procedure, shortened: as §1

SK-MES-1 = tested on: SK-MES-1
Procedure, shortened: as §1

Nc1ccn([C@@H]2O[C@H](CO)[C@@H](O)[C@@H]2O)c(=O)n1 [Cytarabine] + CS(=O)(=O)CCNCc1ccc(-c2ccc3ncnc(Nc4ccc(OCc5cccc(F)c5)c(Cl)c4)c3c2)o1 [Lapatinib] (partner 2 µM)
relative viability (BEN; first compound 0.005 µM): 0.606
relative viability (BEN; first compound 0.01581 µM): 0.549
relative viability (BEN; first compound 0.05 µM): 0.414
relative viability (BEN; first compound 0.1581 µM): 0.333
relative viability (BEN; first compound 0.5 µM): 0.256
relative viability (EKVX; first compound 0.005 µM): 0.225
relative viability (EKVX; first compound 0.01581 µM): 0.18
relative viability (EKVX; first compound 0.05 µM): 0.153
relative viability (EKVX; first compound 0.1581 µM): 0.138
relative viability (EKVX; first compound 0.5 µM): 0.112
relative viability (HARA; first compound 0.005 µM): 0.692
relative viability (HARA; first compound 0.01581 µM): 0.51
relative viability (HARA; first compound 0.05 µM): 0.365
relative viability (HARA; first compound 0.1581 µM): 0.189
relative viability (HARA; first compound 0.5 µM): 0.132
relative viability (HCC-366; first compound 0.005 µM): 1.16
relative viability (HCC-366; first compound 0.01581 µM): 0.85
relative viability (HCC-366; first compound 0.05 µM): 1.05
relative viability (HCC-366; first compound 0.1581 µM): 0.0753
relative viability (HCC-366; first compound 0.5 µM): 0.0431
relative viability (HCC-827; first compound 0.005 µM): 0.192
relative viability (HCC-827; first compound 0.01581 µM): 0.16
relative viability (HCC-827; first compound 0.05 µM): 0.141
relative viability (HCC-827; first compound 0.1581 µM): 0.136
relative viability (HCC-827; first compound 0.5 µM): 0.125
relative viability (LOU-NH91; first compound 0.005 µM): 0.735
relative viability (LOU-NH91; first compound 0.01581 µM): 0.729
relative viability (LOU-NH91; first compound 0.05 µM): 0.588
relative viability (LOU-NH91; first compound 0.1581 µM): 0.669
relative viability (LOU-NH91; first compound 0.5 µM): 0.554
relative viability (NCI-H1355; first compound 0.005 µM): 0.884
relative viability (NCI-H1355; first compound 0.01581 µM): 0.968
relative viability (NCI-H1355; first compound 0.05 µM): 0.811
relative viability (NCI-H1355; first compound 0.1581 µM): 0.66
relative viability (NCI-H1355; first compound 0.5 µM): 0.322
relative viability (NCI-H1395; first compound 0.005 µM): 0.935
relative viability (NCI-H1395; first compound 0.01581 µM): 0.749
relative viability (NCI-H1395; first compound 0.05 µM): 0.581
relative viability (NCI-H1395; first compound 0.1581 µM): 0.461
relative viability (NCI-H1395; first compound 0.5 µM): 0.355
relative viability (NCI-H1437; first compound 0.005 µM): 0.548
relative viability (NCI-H1437; first compound 0.01581 µM): 0.453
relative viability (NCI-H1437; first compound 0.05 µM): 0.378
relative viability (NCI-H1437; first compound 0.1581 µM): 0.177
relative viability (NCI-H1437; first compound 0.5 µM): 0.147
relative viability (NCI-H1734; first compound 0.005 µM): 0.628
relative viability (NCI-H1734; first compound 0.01581 µM): 0.341
relative viability (NCI-H1734; first compound 0.05 µM): 0.481
relative viability (NCI-H1734; first compound 0.1581 µM): 0.151
relative viability (NCI-H1734; first compound 0.5 µM): 0.134
relative viability (NCI-H1792; first compound 0.005 µM): 0.878
relative viability (NCI-H1792; first compound 0.01581 µM): 0.874
relative viability (NCI-H1792; first compound 0.05 µM): 0.366
relative viability (NCI-H1792; first compound 0.1581 µM): 0.548
relative viability (NCI-H1792; first compound 0.5 µM): 0.47
relative viability (NCI-H1993; first compound 0.005 µM): 0.71
relative viability (NCI-H1993; first compound 0.01581 µM): 0.929
relative viability (NCI-H1993; first compound 0.05 µM): 0.682
relative viability (NCI-H1993; first compound 0.1581 µM): 0.618
relative viability (NCI-H1993; first compound 0.5 µM): 0.546
relative viability (NCI-H2009; first compound 0.005 µM): 0.992
relative viability (NCI-H2009; first compound 0.01581 µM): 0.878
relative viability (NCI-H2009; first compound 0.05 µM): 0.444
relative viability (NCI-H2009; first compound 0.1581 µM): 0.694
relative viability (NCI-H2009; first compound 0.5 µM): 0.349
relative viability (NCI-H2087; first compound 0.005 µM): 1.04
relative viability (NCI-H2087; first compound 0.01581 µM): 0.967
relative viability (NCI-H2087; first compound 0.05 µM): 0.894
relative viability (NCI-H2087; first compound 0.1581 µM): 0.678
relative viability (NCI-H2087; first compound 0.5 µM): 0.402
relative viability (NCI-H2170; first compound 0.01581 µM): 0.233
relative viability (NCI-H2170; first compound 0.05 µM): 0.231
relative viability (NCI-H2170; first compound 0.1581 µM): 0.19
relative viability (NCI-H2170; first compound 0.5 µM): 0.182
relative viability (NCI-H2405; first compound 0.005 µM): 0.937
relative viability (NCI-H2405; first compound 0.01581 µM): 0.698
relative viability (NCI-H2405; first compound 0.05 µM): 0.637
relative viability (NCI-H2405; first compound 0.1581 µM): 0.483
relative viability (NCI-H2405; first compound 0.5 µM): 0.294
relative viability (NCI-H647; first compound 0.005 µM): 0.596
relative viability (NCI-H647; first compound 0.01581 µM): 0.411
relative viability (NCI-H647; first compound 0.05 µM): 0.27
relative viability (NCI-H647; first compound 0.1581 µM): 0.128
relative viability (NCI-H647; first compound 0.5 µM): 0.0883
relative viability (NCI-H661; first compound 0.005 µM): 0.544
relative viability (NCI-H661; first compound 0.01581 µM): 0.465
relative viability (NCI-H661; first compound 0.05 µM): 0.49
relative viability (NCI-H661; first compound 0.1581 µM): 0.278
relative viability (NCI-H661; first compound 0.5 µM): 0.233
relative viability (SK-LU-1; first compound 0.005 µM): 0.659
relative viability (SK-LU-1; first compound 0.01581 µM): 0.744
relative viability (SK-LU-1; first compound 0.05 µM): 0.697
relative viability (SK-LU-1; first compound 0.1581 µM): 0.345
relative viability (SK-LU-1; first compound 0.5 µM): 0.467
relative viability (SK-MES-1; first compound 0.005 µM): 0.416
relative viability (SK-MES-1; first compound 0.01581 µM): 0.396
relative viability (SK-MES-1; first compound 0.05 µM): 0.328
relative viability (SK-MES-1; first compound 0.1581 µM): 0.228
relative viability (SK-MES-1; first compound 0.5 µM): 0.196

— the supplement of paper PMC10307832
